Data as given in PubChem BioAssay AID1963826 (Molecular Pharmacology Branch, DTP, NCI, 2024).

Test system: 926638-142-R-J1-PDC complex spheroid viability
Assay: Anticancer human tumor 926638-142-R-J1-PDC patient-derived endometrial carcinoma cell line growth inhibition [POLQ]
Conditions: for IC50: curve of first compound; for viability, T/C: stronger effect = lower value; active = viability on the fitted dose curve at most 10% of control; inactive = the rest
Procedure, shortened: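 Three-cell-type spheroids modelling solid tumor plus stroma served as the readout system; POL inhibitors were tested individually and in combination, concentration ranges set by clinical Cmax where known.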

[1] = second compound 0.0316 µM, first compound 0.0316 µM
[2] = second compound 0.0316 µM, first compound 0.1 µM
[3] = second compound 0.0316 µM, first compound 0.316 µM
[4] = second compound 0.0316 µM, first compound 1 µM
[5] = second compound 0.0316 µM, first compound 3.16 µM
[6] = second compound 0.0316 µM, first compound 10 µM
[7] = second compound 0.1 µM, first compound 0.0316 µM
[8] = second compound 0.1 µM, first compound 0.1 µM
[9] = second compound 0.1 µM, first compound 0.316 µM
[10] = second compound 0.1 µM, first compound 1 µM
[11] = second compound 0.1 µM, first compound 3.16 µM
[12] = second compound 0.1 µM, first compound 10 µM
[13] = second compound 0.316 µM, first compound 0.0316 µM
[14] = second compound 0.316 µM, first compound 0.1 µM
[15] = second compound 0.316 µM, first compound 0.316 µM
[16] = second compound 0.316 µM, first compound 1 µM
[17] = second compound 0.316 µM, first compound 3.16 µM
[18] = second compound 0.316 µM, first compound 10 µM
[19] = second compound 1 µM, first compound 0.0316 µM
[20] = second compound 1 µM, first compound 0.1 µM
[21] = second compound 1 µM, first compound 0.316 µM
[22] = second compound 1 µM, first compound 1 µM
[23] = second compound 1 µM, first compound 3.16 µM
[24] = second compound 1 µM, first compound 10 µM
[25] = second compound 3.16 µM, first compound 0.0316 µM
[26] = second compound 3.16 µM, first compound 0.1 µM
[27] = second compound 3.16 µM, first compound 0.316 µM
[28] = second compound 3.16 µM, first compound 1 µM
[29] = second compound 3.16 µM, first compound 3.16 µM
[30] = second compound 3.16 µM, first compound 10 µM
[31] = second compound 10 µM, first compound 0.0316 µM
[32] = second compound 10 µM, first compound 0.1 µM
[33] = second compound 10 µM, first compound 0.316 µM
[34] = second compound 10 µM, first compound 1 µM
[35] = second compound 10 µM, first compound 3.16 µM
[36] = second compound 10 µM, first compound 10 µM
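Note: spheroids exposed to drugs for one week before readout.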
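Throughout, for viability, T/C: percent viability relative to DMSO vehicle control wells set as 100%.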

CC1COCCN1c1cc(C2(O)CC3CCC(C2)O3)c2cnn(-c3ccn[nH]3)c2n1 (stereo not drawn) + Nc1ccc(C#CCN(C(=O)Cc2ncc(C(F)(F)F)cc2C(F)(F)F)c2ccc(F)cc2)nn1
200 nM: IC50 (second compound 0.1 µM)
191 nM: IC50 (second compound 0.316 µM)
186 nM: IC50 (second compound 10 µM)
198 nM: IC50 (second compound 3.16 µM)
active: viability, T/C [5] 8.94% | viability, T/C [6] 4.04% | viability, T/C [11] 10.6% | viability, T/C [12] 4.15% | viability, T/C [17] 9.43% | viability, T/C [18] 3.41% | viability, T/C [23] 9.22% | viability, T/C [24] 3.83% | viability, T/C [29] 8.76% | viability, T/C [30] 3.76%
199 nM: IC50 (second compound 1 µM)
inactive: viability, T/C [1] 96.6% | viability, T/C [2] 66.5% | viability, T/C [3] 40.1% | viability, T/C [4] 14.8% | viability, T/C [7] 105% | viability, T/C [8] 69.9% | viability, T/C [9] 36.8% | viability, T/C [10] 16.9% | viability, T/C [13] 102% | viability, T/C [14] 68.9% | viability, T/C [15] 33.4% | viability, T/C [16] 19.8% | viability, T/C [19] 88.3% | viability, T/C [20] 71% | viability, T/C [21] 35.8% | viability, T/C [22] 14% | viability, T/C [25] 82.5% | viability, T/C [26] 69% | viability, T/C [27] 36.6% | viability, T/C [28] 15.3% | viability, T/C [31] 73.6% | viability, T/C [32] 75.1% | viability, T/C [33] 29.3% | viability, T/C [34] 15.8% | viability, T/C [35] 10.8% | viability, T/C [36] 3.69%
197 nM: IC50 (second compound 0.0316 µM)

CCc1cc2c(N3CCc4c(cc(Cn5ccnc5)cc4-c4cn(C)nc4C(F)(F)F)C3=O)ccnc2c(OC)n1 + Nc1ccc(C#CCN(C(=O)Cc2ncc(C(F)(F)F)cc2C(F)(F)F)c2ccc(F)cc2)nn1
757 nM: IC50 (second compound 10 µM)
931 nM: IC50 (second compound 1 µM)
inactive: viability, T/C [1] 88.5% | viability, T/C [2] 73.4% | viability, T/C [3] 59.6% | viability, T/C [4] 54.3% | viability, T/C [5] 38.7% | viability, T/C [6] 26.6% | viability, T/C [7] 81.5% | viability, T/C [8] 77.6% | viability, T/C [9] 59.8% | viability, T/C [10] 49.8% | viability, T/C [11] 36.8% | viability, T/C [12] 29.6% | viability, T/C [13] 88.8% | viability, T/C [14] 73.4% | viability, T/C [15] 53.4% | viability, T/C [16] 48.1% | viability, T/C [17] 41.2% | viability, T/C [18] 29.4% | viability, T/C [19] 83.7% | viability, T/C [20] 67.3% | viability, T/C [21] 62.4% | viability, T/C [22] 45.3% | viability, T/C [23] 44.8% | viability, T/C [24] 33.3% | viability, T/C [25] 68.3% | viability, T/C [26] 70.5% | viability, T/C [27] 58% | viability, T/C [28] 41.7% | viability, T/C [29] 38.2% | viability, T/C [30] 31.7% | viability, T/C [31] 86.4% | viability, T/C [32] 67.2% | viability, T/C [33] 59.8% | viability, T/C [34] 48.5% | viability, T/C [35] 37.3% | viability, T/C [36] 32.4%
1060 nM: IC50 (second compound 0.0316 µM)
578 nM: IC50 (second compound 3.16 µM)
879 nM: IC50 (second compound 0.1 µM)
713 nM: IC50 (second compound 0.316 µM)

COc1cc2cc(C(=O)CCC(=O)O)sc2cc1OC + Nc1ccc(C#CCN(C(=O)Cc2ncc(C(F)(F)F)cc2C(F)(F)F)c2ccc(F)cc2)nn1
inactive: viability, T/C [1] 101% | viability, T/C [2] 99.4% | viability, T/C [3] 104% | viability, T/C [4] 98.5% | viability, T/C [5] 104% | viability, T/C [6] 70% | viability, T/C [7] 111% | viability, T/C [8] 97.8% | viability, T/C [9] 91.1% | viability, T/C [10] 96.4% | viability, T/C [11] 104% | viability, T/C [12] 103% | viability, T/C [13] 110% | viability, T/C [14] 105% | viability, T/C [15] 107% | viability, T/C [16] 102% | viability, T/C [17] 112% | viability, T/C [18] 99.9% | viability, T/C [19] 111% | viability, T/C [20] 108% | viability, T/C [21] 90.4% | viability, T/C [22] 101% | viability, T/C [23] 112% | viability, T/C [24] 85.1% | viability, T/C [25] 110% | viability, T/C [26] 93.9% | viability, T/C [27] 105% | viability, T/C [28] 101% | viability, T/C [29] 104% | viability, T/C [30] 88.4% | viability, T/C [31] 89.3% | viability, T/C [32] 101% | viability, T/C [33] 83.4% | viability, T/C [34] 85.2% | viability, T/C [35] 96.4% | viability, T/C [36] 87.8%
> 10000 nM: IC50 (second compound 0.0316 µM) | IC50 (second compound 0.1 µM) | IC50 (second compound 0.316 µM) | IC50 (second compound 1 µM) | IC50 (second compound 3.16 µM) | IC50 (second compound 10 µM)

O=C(Nc1ccc(O)c(NS(=O)(=O)c2ccc(F)cc2)c1)c1ccc(-c2ccccc2)cc1 + Nc1ccc(C#CCN(C(=O)Cc2ncc(C(F)(F)F)cc2C(F)(F)F)c2ccc(F)cc2)nn1
inactive: viability, T/C [1] 106% | viability, T/C [2] 101% | viability, T/C [3] 80.8% | viability, T/C [4] 110% | viability, T/C [5] 95.7% | viability, T/C [6] 82.8% | viability, T/C [7] 105% | viability, T/C [8] 103% | viability, T/C [9] 107% | viability, T/C [10] 108% | viability, T/C [11] 96.4% | viability, T/C [12] 81.3% | viability, T/C [13] 114% | viability, T/C [14] 102% | viability, T/C [15] 99.5% | viability, T/C [16] 116% | viability, T/C [17] 109% | viability, T/C [18] 81.1% | viability, T/C [19] 98% | viability, T/C [20] 106% | viability, T/C [21] 103% | viability, T/C [22] 105% | viability, T/C [23] 105% | viability, T/C [24] 71.9% | viability, T/C [25] 100% | viability, T/C [26] 82.4% | viability, T/C [27] 96.1% | viability, T/C [28] 100% | viability, T/C [29] 106% | viability, T/C [30] 67.6% | viability, T/C [31] 92.2% | viability, T/C [32] 92.8% | viability, T/C [33] 89.5% | viability, T/C [34] 104% | viability, T/C [35] 104% | viability, T/C [36] 72.5%
> 10000 nM: IC50 (second compound 0.0316 µM) | IC50 (second compound 0.1 µM) | IC50 (second compound 0.316 µM) | IC50 (second compound 1 µM) | IC50 (second compound 3.16 µM) | IC50 (second compound 10 µM)
